Test results reported in patent US20240352021A1 (DANA-FARBER CANCER INSTITUTE, INC., priority 2021, published 2024).

Columns and labels:
EGFR L858R = EGFR L858R (Homo sapiens, UniProt P00533, L858R); assay: EGFR biochemical assay (headed HTRF-based; method describes Z'-LYTE), L858R; conditions: Table 4
Experimental: (§1) To measure the IC50 values of compounds herein against EGFR, a Z′-LYTE assay (ThermoFisher) was used. Briefly, 2.5 μL of different concentrations of the compounds in 4% DMSO were added to 5 μL kinase/peptide mixture in each well of a 384-well plate (Corning Cat. #3676). 2.5 μL of 4× ATP solution (4× ATP, 50 mM HEPES, pH 7.5, 0.01% BRIJ-35, 10 mM MgCl2, 1 mM EGTA) were added to each well. The plate was shaken for 30 seconds, and then incubated at room temperature for 60 minutes. 5 μL of a 1:100000 dilution of Development Reagent A was added to each well. The plate was then incubated for 60 mins at room temperature. 5 μL of the stop reagent was then added. The plate was subsequently read on a fluorescence plate reader, and the emissions ratio was calculated to determine the ratio of Ser/Thr 07 phosphorylated by the reaction. Emissions Ratio═Coumarin Emission (443 nm)/Flourescein Emission (520 nm).
(§2) HTRF-based EGFR assay data are provided below in Table 4.

EGFR L858R/T790M = EGFR L858R/T790M (Homo sapiens, UniProt P00533, L858R/T790M); assay: EGFR biochemical assay (headed HTRF-based; method describes Z'-LYTE), L858R/T790M; conditions: Table 4
EGFR L858R/T790M, sequence (P00533 25-1210 T790M/L858R): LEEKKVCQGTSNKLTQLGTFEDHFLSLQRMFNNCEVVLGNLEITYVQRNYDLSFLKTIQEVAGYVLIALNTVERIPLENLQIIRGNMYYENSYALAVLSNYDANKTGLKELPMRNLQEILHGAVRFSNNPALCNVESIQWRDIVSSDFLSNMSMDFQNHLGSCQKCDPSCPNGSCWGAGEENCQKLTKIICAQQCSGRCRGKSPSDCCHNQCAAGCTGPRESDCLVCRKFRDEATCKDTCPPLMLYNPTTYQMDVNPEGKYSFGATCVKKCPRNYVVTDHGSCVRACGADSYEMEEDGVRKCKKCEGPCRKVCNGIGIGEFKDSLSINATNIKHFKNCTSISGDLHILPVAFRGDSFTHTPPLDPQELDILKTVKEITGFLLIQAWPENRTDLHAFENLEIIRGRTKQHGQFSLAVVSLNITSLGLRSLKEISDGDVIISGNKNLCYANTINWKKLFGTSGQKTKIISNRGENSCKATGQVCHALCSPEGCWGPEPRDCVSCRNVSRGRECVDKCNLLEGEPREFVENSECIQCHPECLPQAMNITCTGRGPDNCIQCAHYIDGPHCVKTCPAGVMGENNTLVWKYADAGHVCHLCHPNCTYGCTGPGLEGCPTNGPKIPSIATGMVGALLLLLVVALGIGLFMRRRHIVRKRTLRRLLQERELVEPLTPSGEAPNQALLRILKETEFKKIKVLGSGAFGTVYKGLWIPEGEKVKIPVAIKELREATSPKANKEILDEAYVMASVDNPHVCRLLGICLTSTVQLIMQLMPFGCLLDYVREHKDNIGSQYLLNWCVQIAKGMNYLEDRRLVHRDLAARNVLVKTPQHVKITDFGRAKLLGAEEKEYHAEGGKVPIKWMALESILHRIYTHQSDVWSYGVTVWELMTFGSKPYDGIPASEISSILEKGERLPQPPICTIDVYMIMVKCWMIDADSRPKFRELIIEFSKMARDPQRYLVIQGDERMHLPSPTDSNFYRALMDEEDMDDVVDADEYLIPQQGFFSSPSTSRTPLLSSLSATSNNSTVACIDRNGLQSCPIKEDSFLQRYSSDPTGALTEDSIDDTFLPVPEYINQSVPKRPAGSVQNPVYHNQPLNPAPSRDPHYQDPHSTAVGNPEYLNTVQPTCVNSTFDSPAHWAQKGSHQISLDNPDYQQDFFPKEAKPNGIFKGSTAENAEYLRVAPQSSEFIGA
Experimental: as §1, §2

[1] = target: EGFR mutant L858R Ba/F3 cells (Homo sapiens, UniProt P00533, L858R, cells depend on it); assay: Ba/F3 cell proliferation (Cell Titer Glo), EGFR L858R; assay type: cell-based, murine; conditions: 72 hours, Table 6, read-out: L858R BaF3
EGFR mutant L858R Ba/F3 cells, sequence (P00533 whole entry L858R): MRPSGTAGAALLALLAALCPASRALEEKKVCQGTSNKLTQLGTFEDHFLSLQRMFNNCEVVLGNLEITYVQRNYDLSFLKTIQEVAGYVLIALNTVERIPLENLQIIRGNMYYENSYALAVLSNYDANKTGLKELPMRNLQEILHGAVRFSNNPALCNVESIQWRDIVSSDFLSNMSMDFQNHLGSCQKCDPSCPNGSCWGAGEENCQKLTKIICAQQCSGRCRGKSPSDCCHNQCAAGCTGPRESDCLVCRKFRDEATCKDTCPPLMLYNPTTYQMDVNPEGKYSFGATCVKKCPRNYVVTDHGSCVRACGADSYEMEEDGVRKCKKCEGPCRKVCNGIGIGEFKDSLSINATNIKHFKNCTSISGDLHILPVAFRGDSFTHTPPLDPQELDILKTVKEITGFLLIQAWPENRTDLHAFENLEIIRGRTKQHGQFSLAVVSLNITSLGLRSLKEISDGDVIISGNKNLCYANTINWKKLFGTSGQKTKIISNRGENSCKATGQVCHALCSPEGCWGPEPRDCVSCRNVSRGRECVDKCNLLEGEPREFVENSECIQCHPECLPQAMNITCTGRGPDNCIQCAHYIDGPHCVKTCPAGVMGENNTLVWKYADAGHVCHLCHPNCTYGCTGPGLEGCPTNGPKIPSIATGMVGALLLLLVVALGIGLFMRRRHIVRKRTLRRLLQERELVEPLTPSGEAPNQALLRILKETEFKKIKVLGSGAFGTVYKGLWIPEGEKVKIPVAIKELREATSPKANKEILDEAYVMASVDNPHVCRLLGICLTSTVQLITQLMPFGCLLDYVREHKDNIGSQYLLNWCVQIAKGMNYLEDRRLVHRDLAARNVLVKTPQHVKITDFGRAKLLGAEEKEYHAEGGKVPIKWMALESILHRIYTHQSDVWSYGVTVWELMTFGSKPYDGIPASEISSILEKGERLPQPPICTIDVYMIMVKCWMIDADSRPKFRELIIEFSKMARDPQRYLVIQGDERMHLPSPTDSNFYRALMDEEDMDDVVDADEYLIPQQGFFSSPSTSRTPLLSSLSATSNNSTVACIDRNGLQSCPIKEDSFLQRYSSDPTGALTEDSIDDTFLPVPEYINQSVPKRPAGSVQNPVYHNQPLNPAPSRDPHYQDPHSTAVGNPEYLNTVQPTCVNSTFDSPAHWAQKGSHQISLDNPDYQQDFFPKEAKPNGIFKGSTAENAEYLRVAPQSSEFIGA
How it was run: (§3)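 Retrovirally transduced, puromycin-selected Ba/F3 cells expressing EGFR L858R or L858R/C797S, grown in RPMI + 10% FBS, exposed to compounds for 72 h in triplicate. Viability by Cell Titer Glo ATP luminescence; IC50 from sigmoidal dose-response fit, binned A <0.1, B 0.1–0.5, C 0.5–2.5, D ≥2.5 μM.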

[2] = target: EGFR L858R/C797S Ba/F3 cells (Homo sapiens, UniProt P00533, C797S/L858R, cells depend on it); assay: Ba/F3 cell proliferation (Cell Titer Glo), EGFR L858R/C797S; assay type: cell-based, murine; conditions: 72 hours, Table 6
EGFR L858R/C797S Ba/F3 cells, sequence (P00533 whole entry C797S/L858R): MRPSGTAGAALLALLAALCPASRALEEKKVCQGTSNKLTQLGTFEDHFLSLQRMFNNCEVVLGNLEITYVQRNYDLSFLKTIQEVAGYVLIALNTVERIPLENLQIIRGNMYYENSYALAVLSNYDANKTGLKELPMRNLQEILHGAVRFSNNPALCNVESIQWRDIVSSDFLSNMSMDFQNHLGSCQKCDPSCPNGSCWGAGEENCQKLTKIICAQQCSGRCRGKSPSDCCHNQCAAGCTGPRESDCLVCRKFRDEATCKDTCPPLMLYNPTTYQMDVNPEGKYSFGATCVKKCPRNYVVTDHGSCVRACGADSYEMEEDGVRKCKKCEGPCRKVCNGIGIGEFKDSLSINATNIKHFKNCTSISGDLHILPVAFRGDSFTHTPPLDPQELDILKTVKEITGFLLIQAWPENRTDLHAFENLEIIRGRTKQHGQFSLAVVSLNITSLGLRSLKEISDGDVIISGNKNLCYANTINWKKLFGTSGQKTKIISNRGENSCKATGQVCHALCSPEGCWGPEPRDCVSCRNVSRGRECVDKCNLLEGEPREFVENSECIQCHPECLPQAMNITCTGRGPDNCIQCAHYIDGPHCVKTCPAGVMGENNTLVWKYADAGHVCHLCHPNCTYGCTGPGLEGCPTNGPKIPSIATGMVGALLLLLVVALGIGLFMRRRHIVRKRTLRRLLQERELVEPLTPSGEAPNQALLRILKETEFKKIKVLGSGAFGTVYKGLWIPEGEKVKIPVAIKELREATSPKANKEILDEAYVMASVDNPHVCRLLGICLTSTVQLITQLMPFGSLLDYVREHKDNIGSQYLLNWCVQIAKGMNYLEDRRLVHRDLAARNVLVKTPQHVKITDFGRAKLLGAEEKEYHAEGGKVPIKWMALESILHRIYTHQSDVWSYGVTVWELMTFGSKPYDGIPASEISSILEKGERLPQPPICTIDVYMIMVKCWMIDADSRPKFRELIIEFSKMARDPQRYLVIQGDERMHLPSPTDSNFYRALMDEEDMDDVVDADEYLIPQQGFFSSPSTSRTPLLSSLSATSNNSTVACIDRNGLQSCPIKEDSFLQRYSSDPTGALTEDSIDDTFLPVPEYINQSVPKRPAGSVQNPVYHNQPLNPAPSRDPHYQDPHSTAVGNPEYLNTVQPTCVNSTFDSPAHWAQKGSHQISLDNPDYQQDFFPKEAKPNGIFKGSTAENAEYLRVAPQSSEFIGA
How it was run: as §3

EGFR L858R, sequence (P00533 25-1210 L858R): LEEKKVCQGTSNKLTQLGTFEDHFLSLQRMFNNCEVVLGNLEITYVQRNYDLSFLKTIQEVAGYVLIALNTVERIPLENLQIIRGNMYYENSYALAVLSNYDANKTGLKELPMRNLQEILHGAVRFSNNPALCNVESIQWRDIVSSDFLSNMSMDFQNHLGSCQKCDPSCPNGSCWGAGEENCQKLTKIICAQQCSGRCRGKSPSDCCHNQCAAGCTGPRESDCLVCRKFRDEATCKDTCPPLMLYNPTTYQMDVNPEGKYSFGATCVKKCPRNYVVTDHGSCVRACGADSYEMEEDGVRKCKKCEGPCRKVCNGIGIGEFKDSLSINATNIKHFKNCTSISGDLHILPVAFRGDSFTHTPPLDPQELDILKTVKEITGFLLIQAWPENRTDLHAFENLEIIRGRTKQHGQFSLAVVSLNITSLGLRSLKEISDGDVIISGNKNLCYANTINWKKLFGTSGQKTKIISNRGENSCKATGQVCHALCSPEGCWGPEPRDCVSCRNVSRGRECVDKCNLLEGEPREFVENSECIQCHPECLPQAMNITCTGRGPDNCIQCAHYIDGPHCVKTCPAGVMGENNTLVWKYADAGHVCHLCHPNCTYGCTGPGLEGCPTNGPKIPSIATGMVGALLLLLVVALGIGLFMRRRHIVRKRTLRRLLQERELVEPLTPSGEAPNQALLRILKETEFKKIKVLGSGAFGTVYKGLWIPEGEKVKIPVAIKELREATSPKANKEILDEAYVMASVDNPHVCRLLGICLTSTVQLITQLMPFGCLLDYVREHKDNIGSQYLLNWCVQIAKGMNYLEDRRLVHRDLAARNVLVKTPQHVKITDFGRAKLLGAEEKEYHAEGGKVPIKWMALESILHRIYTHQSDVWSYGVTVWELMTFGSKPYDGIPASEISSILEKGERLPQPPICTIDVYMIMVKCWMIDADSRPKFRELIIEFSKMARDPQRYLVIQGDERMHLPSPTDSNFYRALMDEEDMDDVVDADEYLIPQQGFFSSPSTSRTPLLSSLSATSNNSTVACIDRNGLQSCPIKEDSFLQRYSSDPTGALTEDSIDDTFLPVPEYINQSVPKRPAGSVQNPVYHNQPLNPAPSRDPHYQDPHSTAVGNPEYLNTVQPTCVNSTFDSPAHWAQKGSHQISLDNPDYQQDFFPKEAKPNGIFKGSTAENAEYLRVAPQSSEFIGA

| Structure (SMILES) | IC50 (EGFR L858R) [µM] | IC50 (EGFR L858R/T790M) [µM] | GI50 [1] [µM] | GI50 [2] [µM] |
| --- | --- | --- | --- | --- |
| C=CC(=O)Nc1cccc(N2C(=O)N(C3CCN(C(=O)C=C)c4ccccc43)Cc3cnc(Nc4ccc(N5CCN(C)CC5)cc4)nc32)c1 (stereo not drawn) [Compound 158, N-[3-[7-[4-(4-methylpiperazin-1-yl)anilino]-2-oxo-S-(1-prop-2-enoyl-3,4-dihydro-2H-quinolin-4-yl)-4H-pyrimido[4,5-d]pyrimidin-1-yl]phenyl]prop-2-enamide] | 0.00107 | 0.00071 | < 0.1 | < 0.1 |
| C=CC(=O)N1CCC(N2Cc3cnc(Nc4ccc(N5CCN(C)CC5)cc4)nc3N(C)C2=O)c2cccc(C(F)(F)F)c21 (stereo not drawn) [Compound 143, 1-methyl-7-[4-(4-methylpiperazin-1-yl)anilino]-S-[1-prop-2-enoyl-8-(trifluoromethyl)-3,4-dihydro-2H-quinolin-4-yl]-4H-pyrimido[4,5-d]pyrimidin-2-one] | > 1 | > 1 | 0.5 to 2.5 | ≥ 2.5 |
| C=CC(=O)N1CCC(N2Cc3cnc(Nc4ccc(N5CCN(C)CC5)cc4)nc3N(C)C2=O)c2cccc(O)c21 (centres unmarked) [Compound 133] | 0.00113 | 0.01 | < 0.1 | < 0.1 |
| C=CC(=O)N1C[C@@H](N2Cc3cnc(Nc4ccc(N5CCN(C)CC5)cc4)nc3N(C)C2=O)C[C@@H]1C(=O)O [Compound 138, (2R,4S)-4-[1-methyl-7-[4-(4-methylpiperazin-1-yl)anilino]-2-oxo-4H-pyrimido[4,5-d]pyrimidin-S-yl]-1-prop-2-enoyl-pyrrolidine-2-carboxylic acid] | > 1 | > 1 | ≥ 2.5 | ≥ 2.5 |
| C=CC(=O)N1CC[C@H](N2Cc3cnc(Nc4ccc(N5CCN(C)CC5)cc4)nc3N(CCO)C2=O)c2cccc(C)c21 [Compound 153, 1-(2-hydroxyethyl)-7-[4-(4-methylpiperazin-1-yl)anilino]-S-[(4S)-8-methyl-1-prop-2-enoyl-3,4-dihydro-2H-quinolin-4-yl]-4H-pyrimido[4,5-d]pyrimidin-2-one] | 0.00088 | > 1 | < 0.1 | < 0.1 |
| C=C(CN1CC(N2Cc3cnc(Nc4ccc(N5CCN(C)CC5)cc4)nc3N(C)C2=O)C1)C(=O)O [Compound 137, 2-[[3-[1-methyl-7-[4-(4-methylpiperazin-1-yl)anilino]-2-oxo-4H-pyrimido[4,5-d]pyrimidin-S-yl]azetidin-1-yl]methyl]prop-2-enoic acid] | > 1 | > 1 | ≥ 2.5 | ≥ 2.5 |
| C=CC(=O)N1CCC(N2Cc3cnc(Nc4ccc(N5CCN(C)CC5)cc4)nc3N(C)C2=O)c2cccc(Cl)c21 (centres unmarked) [Compound 147, 3-(8-chloro-1-prop-2-enoyl-3,4-dihydro-2H-quinolin-4-yl)-1-methyl-7-[4-(4-methylpiperazin-1-yl)anilino]-4H-pyrimido[4,5-d]pyrimidin-2-one] | > 1 | > 1 | 0.5 to 2.5 | ≥ 2.5 |
| C=C(F)C(=O)N1CC[C@H](N2Cc3cnc(Nc4cnn(CCO)c4)nc3N(C)C2=O)c2cccc(OC)c21 (single isomer, unassigned) [Compound 120] | > 0.1 | > 0.1 | ≥ 2.5 | ≥ 2.5 |
| C=CC(=O)N1CCC(N2Cc3cnc(Nc4ccc(N5CCN(C)CC5)cc4)nc3N(C)C2=O)c2cnn(C)c21 (stereo not drawn) [Compound 132, 1-methyl-7-[4-(4-methylpiperazin-1-yl)anilino]-S-(1-methyl-7-prop-2-enoyl-5,6-dihydro-4H-pyrazolo[3,4-b]pyridin-4-yl)-4H-pyrimido[4,5-d]pyrimidin-2-one] | > 1 | > 1 | 0.1 to 0.5 | 0.1 to 0.5 |
| C=CC(=O)N1CC[C@H](N2Cc3cnc(Nc4ccc(N5CCN(C)CC5)cc4)nc3N(C3CC(O)C3)C2=O)c2cccc(C)c21 (stereo partly drawn) [Compound 152, 1-(3-hydroxycyclobutyl)-7-[4-(4-methylpiperazin-1-yl)anilino]-S-[(4S)-8-methyl-1-prop-2-enoyl-3,4-dihydro-2H-quinolin-4-yl]-4H-pyrimido[4,5-d]pyrimidin-2-one] | 0.00117 | > 1 | < 0.1 | < 0.1 |
| C=CC(=O)N1c2ccccc2[C@@H](N2Cc3cnc(Nc4ccc(N5CCN(C)CC5)cc4)nc3N(C)C2=O)C[C@@H]1C [Compound 135, 1-methyl-7-[4-(4-methylpiperazin-1-yl)anilino]-3-[(2S,4S)-2-methyl-1-prop-2-enoyl-3,4-dihydro-2H-quinolin-4-yl]-4H-pyrimido[4,5-d]pyrimidin-2-one] | 0.00089 | > 1 | < 0.1 | < 0.1 |
